The text below walks through data of ChEMBL document CHEMBL1201862, “PubChem BioAssay data set” (2004).

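96-well plates; 48 h exposure; 5 concentrations. Endpoints by linear interpolation between flanking doses. Not reached: highest tested concentration assigned. Here, GI50 denotes the concentration required for 50% inhibition of growth.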 Calls of active or inactive are those of the source. Rule as the data show it: active = GI50 up to about 1.1 µM and inactive = higher.

Test systems include SK-MEL-28; HT-29; SK-MEL-2; NCI-H226; KM-20L2; SR; SF-295; Hs-578T; M14; 786-0; ACHN; CAKI-1; UACC-62; SF-539; A498; T47D; NCI/ADR-RES; RXF 393; PC-3; HCT-116.
Common to all, as to assay: NCI-60 cell line screen, 48 h

As for `CN(C)CC1CC/C(=C\c2ccc(O)cc2)C1=O` (stereo not given), the GI50 with SK-MEL-28 was 2.48 µM (inactive); in the assay on HT-29, 3.04 µM (inactive); in the assay on SK-MEL-2 it was 8.28 µM (inactive); in the assay with NCI-H226, 10.4 µM (inactive); in the assay on KM-20L2, 9.55 µM (inactive); in the assay on SR, 0.931 µM (active). Besides, the GI50 in the assay with SF-295 is 19.2 µM (inactive); with Hs-578T, 7.11 µM (inactive); in the assay with M14, 2.14 µM (inactive); with 786-0 it was 2.16 µM (inactive); with ACHN, 3.51 µM (inactive); in the assay on CAKI-1 it was 1.63 µM (inactive). For the same molecule, the GI50 with UACC-62 was 6.12 µM (inactive); with SF-539, 7.8 µM (inactive); in the assay on A498, 9.35 µM (inactive); with T47D it was 2.14 µM (inactive); with NCI/ADR-RES, 5.32 µM (inactive); in the assay on RXF 393, 2.07 µM (inactive). In addition, the GI50 in the assay with PC-3 was 9.08 µM (inactive); in the assay on HCT-116, 2 µM (inactive).
In the case of `C/C(=N\N=C(/S)N(C)C)c1cccc[n+]1[O-]`, the GI50 in the assay on SK-MEL-28 was 73.5 µM (inactive); with HT-29, 3.05 µM (inactive); with SK-MEL-2, 38.5 µM (inactive); in the assay on NCI-H226 it was 54.6 µM (inactive); in the assay on KM-20L2 it was 5.61 µM (inactive); with SR, 1.23 µM (inactive). Moreover, the GI50 in the assay on SF-295 was 39.6 µM (inactive); in the assay with Hs-578T, 92.9 µM (inactive); with M14, 25.9 µM (inactive); in the assay with 786-0, 28.6 µM (inactive); in the assay on ACHN, 38.2 µM (inactive); with CAKI-1, 32.4 µM (inactive). Besides, the GI50 in the assay on UACC-62 was 16.1 µM (inactive); in the assay with SF-539 it was 47.4 µM (inactive); with A498 it was > 100 µM (inactive); with T47D it was 0.413 µM (active); in the assay with NCI/ADR-RES it was 2.05 µM (inactive); in the assay on RXF 393 it was 65.3 µM (inactive). The GI50 is 15.4 µM (inactive) with PC-3 and 0.489 µM (active) with HCT-116.
Take `O=C1C=C(Br)C(=O)C12CCc1ccccc12` (stereo not given): the GI50 in the assay on SK-MEL-28 is 12.2 µM (inactive); in the assay on HT-29, 14.8 µM (inactive); in the assay on SK-MEL-2, 19.6 µM (inactive); with NCI-H226 it was 18.3 µM (inactive); in the assay with KM-20L2, 26.7 µM (inactive); in the assay with SR, 3.27 µM (inactive). Also, the GI50 is 18.6 µM (inactive) with SF-295; 35.3 µM (inactive) with Hs-578T; 12.4 µM (inactive) in the assay with M14; 11.9 µM (inactive) in the assay with 786-0; 11.5 µM (inactive) with ACHN; 6.47 µM (inactive) in the assay with CAKI-1. Further, the GI50 in the assay with UACC-62 is 16.8 µM (inactive); in the assay on SF-539, 17.4 µM (inactive); in the assay with A498, 4.61 µM (inactive); in the assay with T47D, 17.8 µM (inactive); in the assay on NCI/ADR-RES, 27.7 µM (inactive); in the assay on RXF 393, 9.14 µM (inactive). For the same molecule, the values for the GI50 with PC-3 and with HCT-116 were 17.7 µM (inactive) and 10.5 µM (inactive), respectively.
On to `COc1ccc(Cc2cc(OC)c(OC)c(OC)c2)cc1`, for which the GI50 is 0.479 µM (active) in the assay with SK-MEL-28; 0.124 µM (active) with HT-29; 0.218 µM (active) in the assay on SK-MEL-2; 0.923 µM (active) in the assay on NCI-H226; 0.181 µM (active) in the assay on KM-20L2; 0.0436 µM (active) in the assay on SR. Further, the GI50 with SF-295 was 0.188 µM (active); in the assay with Hs-578T, 0.215 µM (active); in the assay on M14 it was 0.411 µM (active); in the assay with 786-0 it was 0.429 µM (active); in the assay on ACHN it was 0.771 µM (active); with CAKI-1 it was 0.254 µM (active). For the same molecule, the GI50 in the assay on UACC-62 was 0.129 µM (active); in the assay with SF-539, 0.224 µM (active); in the assay on A498, 0.27 µM (active); in the assay on T47D, 30.8 µM (inactive); in the assay with NCI/ADR-RES it was 0.146 µM (active); in the assay on RXF 393, 0.168 µM (active). Besides, the GI50 in the assay on PC-3 was 0.234 µM (active); in the assay with HCT-116, 0.207 µM (active).
